# Data published in US5968910A, “Compositions containing two or three inhibitors of different HIV reverse transcriptases” (priority 1994, dated 1999).
# Read-outs that look alike come from different tables or passages of the source.
# Tests used:
# HIV-1(IIIB) (WT) = assay: microbe, parasite or virus in culture; type: cell-based; details: Human immunodeficiency virus 1, IIIB, CCRF-CEM
# Outline: (§1)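 Syncytium formation read out after 4 days at 37° C. Cultures: CEM cells, 250,000/ml, infected at 100 50% cell culture infective doses/ml and added to compound dilutions.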
# HIV-1/I(0.1) 103-Asn = assay: Sensitivity of mutant HIV-1 strain in CEM cell cultures; type: cell-based; details: Human immunodeficiency virus 1, CCRF-CEM; Table 5; read-out: EC50
# Outline: as §1
# HIV-1/II(0.1) 100-Ile = assay: as above; type: cell-based; details: Human immunodeficiency virus 1, CCRF-CEM; Table 5; read-out: EC50
# Outline: as §1
# HIV-1/III(0.1) 103-Asn = assay: as above; type: cell-based; details: Human immunodeficiency virus 1, CCRF-CEM; Table 5; read-out: EC50
# Outline: as §1
# HIV-1/IV(0.1) 103-Thr = assay: as above; type: cell-based; details: Human immunodeficiency virus 1, CCRF-CEM; Table 5; read-out: EC50
# Outline: as §1
# HIV-1/Nev (106-Ala) = assay: as above; type: cell-based; details: Human immunodeficiency virus 1, CCRF-CEM; CEM cells, Table 1; read-out: 50% Effective Concentration
# Outline: as §1
# HIV-1/Pyr (181-Cys) = assay: as above; type: cell-based; details: Human immunodeficiency virus 1, CCRF-CEM; CEM cells, Table 1; read-out: 50% Effective Concentration
# Outline: as §1
# [1] = system: HIV-1/TIBO R82150 (100-Ile); assay: as above; type: cell-based; details: Human immunodeficiency virus 1, CCRF-CEM; CEM cells, Table 1; read-out: 50% Effective Concentration
# Outline: as §1
# [2] = system: HIV-1/TIBO R82913 (103-Asn); assay: as above; type: cell-based; details: Human immunodeficiency virus 1, CCRF-CEM; CEM cells, Table 1; read-out: 50% Effective Concentration
# Outline: as §1
# [3] = system: HIV-1/TSAO-m^3 T (138-Lys); assay: as above; type: cell-based; details: Human immunodeficiency virus 1, CCRF-CEM; CEM cells, Table 1; read-out: 50% Effective Concentration
# Outline: as §1
# [4] = system: HIV-1/V(0.1) 101-Ile + 141-Glu; assay: as above; type: cell-based; details: Human immunodeficiency virus 1, CCRF-CEM; Table 5; read-out: EC50
# Outline: as §1
# HIV-1/V(0.5) 103-Asn = assay: as above; type: cell-based; details: Human immunodeficiency virus 1, CCRF-CEM; Table 5; read-out: EC50
# Outline: as §1
# HIV-1 RT (WT) = HIV-1 RT (WT) (Human immunodeficiency virus type 1 group M subtype B, UniProt P03366); assay: biochemical
# Outline: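 Inhibition read as reduced incorporation of [2,8-³H]dGTP (2.95 μM) into acid-precipitable product on a poly(C).oligo(dG) template/primer (0.1 mM). Recombinant RT, test compounds in 5-fold dilutions; 30 min, 37° C, pH 7.8 Tris buffer with 5 mM Mg2+, 150 mM KCl.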
# HIV-1(IIIB) = assay: Knock-out concentrations: breakthrough of HIV-1(IIIB)-induced cytopathicity in CEM cell cultures; type: cell-based; details: for activity at 0.1 µg/mL / activity at 0.5 µg/mL / activity at 2.5 µg/mL: Human immunodeficiency virus 1, IIIB, CCRF-CEM, read-out: HIV-1-induced cytopathicity in cell culture; for activity at 0.1 µg/mL: 0.1 μg/ml; for activity at 0.5 µg/mL: 0.5 μg/ml; for activity at 2.5 µg/mL: 2.5 μg/ml
# Outline: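 CEM cells in RPMI 1640 with 10% FBS infected with HIV-1(IIIB) at ~1000× CCID50, subcultured every 3–4 days into fresh uninfected cells with drug held constant for 10 subcultivations (35 days), then ≥5 drug-free passages. Breakthrough scored by syncytium formation. Combinations used the two lowest single-drug starting concentrations.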
# [5] = 936 h, day 39 post infection, compound absent from day 35
# [6] = 1008 h, day 42 post infection, compound absent from day 35
# [7] = 1104 h, day 46 post infection, compound absent from day 35
# [8] = 1176 h, day 49 post infection, compound absent from day 35
# [9] = 1272 h, day 53 post infection, compound absent from day 35
structure (smiles),measurement,setting,value
Cc1occc1C(=S)Nc1ccc(Cl)c(C(=O)OC2CCCCC2)c1 [Compound III],EC50,"HIV-1(IIIB) (WT); CEM cells, Table 1, read-out: 50% Effective Concentration",0.004 µg/mL
same,EC50,"HIV-1(IIIB) (WT); HIV-1 (III8), Table 5, read-out: EC50",0.004 µg/mL
same,IC50,"HIV-1(IIIB) (WT); range stated for Compounds I-V together, read-out: 50% inhibitory concentration, HIV-1(IIIB) replication in CEM cells",0.004 to 0.05 µg/mL
same,EC50,HIV-1/I(0.1) 103-Asn,0.3 µg/mL
same,EC50,HIV-1/II(0.1) 100-Ile,0.87 µg/mL
same,EC50,HIV-1/III(0.1) 103-Asn,0.16 µg/mL
same,EC50,HIV-1/IV(0.1) 103-Thr,1.1 µg/mL
same,EC50,HIV-1/Nev (106-Ala),0.057 µg/mL
same,EC50,HIV-1/Pyr (181-Cys),0.07 µg/mL
same,EC50,[1],0.17 µg/mL
same,EC50,[2],0.7 µg/mL
same,EC50,[3],0.035 µg/mL
same,EC50,[4],0.05 µg/mL
same,EC50,HIV-1/V(0.5) 103-Asn,0.85 µg/mL
same,IC50,"HIV-1 RT (WT); range stated for the compounds together, poly(C).oligo(dG), 2.95 μM [2,8-3H]dGTP, read-out: IC50 on recombinant HIV-1 RT",47.6 to 204 nM
same,IC50,"HIV-1 RT (WT); substrate [2,8-3H]dGTP 2.95 μM, template poly(rC)oligo(dG), read-out: IC50, anti-HIV-1 RT (WT) activity (converted)",146 nM
same,"prevention of virus breakthrough, fold more efficient than BHAP",HIV-1(IIIB),at least 5 fold
same,"prevention of virus breakthrough, fold more efficient than nevirapine",HIV-1(IIIB),≥ 25 fold
same,activity at 0.1 µg/mL,"HIV-1(IIIB); 96 h, day 4 post infection",0%
same,activity at 0.5 µg/mL,"HIV-1(IIIB); 96 h, day 4 post infection",0%
same,activity at 2.5 µg/mL,"HIV-1(IIIB); 96 h, day 4 post infection",0%
same,activity at 0.1 µg/mL,"HIV-1(IIIB); 192 h, day 8 post infection",0%
same,activity at 0.5 µg/mL,"HIV-1(IIIB); 192 h, day 8 post infection",0%
same,activity at 2.5 µg/mL,"HIV-1(IIIB); 192 h, day 8 post infection",0%
same,activity at 0.1 µg/mL,"HIV-1(IIIB); 264 h, day 11 post infection",0%
same,activity at 0.5 µg/mL,"HIV-1(IIIB); 264 h, day 11 post infection",0%
same,activity at 2.5 µg/mL,"HIV-1(IIIB); 264 h, day 11 post infection",0%
same,activity at 0.1 µg/mL,"HIV-1(IIIB); 336 h, day 14 post infection",6.2%
same,activity at 0.5 µg/mL,"HIV-1(IIIB); 336 h, day 14 post infection",0%
same,activity at 2.5 µg/mL,"HIV-1(IIIB); 336 h, day 14 post infection",0%
same,activity at 0.1 µg/mL,"HIV-1(IIIB); 408 h, day 17 post infection",50%
same,activity at 0.5 µg/mL,"HIV-1(IIIB); 408 h, day 17 post infection",0%
same,activity at 2.5 µg/mL,"HIV-1(IIIB); 408 h, day 17 post infection",0%
same,activity at 0.1 µg/mL,"HIV-1(IIIB); 504 h, day 21 post infection",100%
same,activity at 0.5 µg/mL,"HIV-1(IIIB); 504 h, day 21 post infection",0%
same,activity at 2.5 µg/mL,"HIV-1(IIIB); 504 h, day 21 post infection",0%
same,activity at 0.1 µg/mL,"HIV-1(IIIB); 600 h, day 25 post infection",100%
same,activity at 0.5 µg/mL,"HIV-1(IIIB); 600 h, day 25 post infection",0%
same,activity at 2.5 µg/mL,"HIV-1(IIIB); 600 h, day 25 post infection",0%
same,activity at 0.1 µg/mL,"HIV-1(IIIB); 672 h, day 28 post infection",100%
same,activity at 0.5 µg/mL,"HIV-1(IIIB); 672 h, day 28 post infection",0%
same,activity at 2.5 µg/mL,"HIV-1(IIIB); 672 h, day 28 post infection",0%
same,activity at 0.1 µg/mL,"HIV-1(IIIB); 768 h, day 32 post infection",100%
same,activity at 0.5 µg/mL,"HIV-1(IIIB); 768 h, day 32 post infection",0%
same,activity at 2.5 µg/mL,"HIV-1(IIIB); 768 h, day 32 post infection",0%
same,activity at 0.1 µg/mL,"HIV-1(IIIB); 840 h, day 35 post infection",100%
same,activity at 0.5 µg/mL,"HIV-1(IIIB); 840 h, day 35 post infection",0%
same,activity at 2.5 µg/mL,"HIV-1(IIIB); 840 h, day 35 post infection",0%
same,activity at 0.1 µg/mL,HIV-1(IIIB); [5],100%
same,activity at 0.5 µg/mL,HIV-1(IIIB); [5],0%
same,activity at 2.5 µg/mL,HIV-1(IIIB); [5],0%
same,activity at 0.1 µg/mL,HIV-1(IIIB); [6],100%
same,activity at 0.5 µg/mL,HIV-1(IIIB); [6],0%
same,activity at 2.5 µg/mL,HIV-1(IIIB); [6],0%
same,activity at 0.1 µg/mL,HIV-1(IIIB); [7],100%
same,activity at 0.5 µg/mL,HIV-1(IIIB); [7],0%
same,activity at 2.5 µg/mL,HIV-1(IIIB); [7],0%
same,activity at 0.1 µg/mL,HIV-1(IIIB); [8],100%
same,activity at 0.5 µg/mL,HIV-1(IIIB); [8],0%
same,activity at 2.5 µg/mL,HIV-1(IIIB); [8],0%
same,activity at 0.1 µg/mL,HIV-1(IIIB); [9],100%
same,activity at 0.5 µg/mL,HIV-1(IIIB); [9],0%
same,activity at 2.5 µg/mL,HIV-1(IIIB); [9],0%
same,concentration at which virus emerged (virus breakthrough),"HIV-1(IIIB); tested at 0.1, 0.5 and 2.5 μg/ml, 35 days",0.1 µg/mL
